Results taken from US20020016981A1, “Methods for producing genetically modified plants, plant materials and plant products produced thereby” (priority 1998, published 2002).

How the values were obtained:
Type in all cases: cell-based
[1] = system: stem segments from in vitro micropropagated shoot cultures of E. grandis x nitens clone 910.59; experiment: Kanamycin inhibition of adventitious bud formation on stem segments (Example 2); conditions: after 5 weeks in culture
Description: (§1) The following examples are offered by way of illustration and not by way of limitation. Examples 1 to 3 describe experiments involving optimization of the regeneration and transformation protocols for Eucalyptus transformation. All refer to adventitious bud induction from stem segments obtained from in vitro micropropagated shoot cultures of E. grandis x nitens clone 910.59 (Fletcher Challenge Forests, Ltd., New Zealand). The tissue culture conditions in all examples, unless otherwise noted, were: temperature 20° C., 16 hour photoperiod, and cool white fluorescent lighting. These tissue culture conditions are generally preferred. All cultures were placed in 20×100 mm Petri dishes, 10 stem segments per dish.
This experiment was designed to determine the optimal concentration of kanamycin to be used for selection of transformed bud tissues. Explants were cultured as described at the end of Example 1, in combination with kanamycin levels of 0, 5, 10, 25, 50 or 100 mg/l. In vitro shoots of 3-4 cm in size were cut into single node segments, and the appropriate segments used. All leaves were removed prior to culture. Approximately thirty explants were used for each treatment. Cultures were transferred to fresh medium after 3 weeks in culture, and the percentage of bud inhibition determined after 5 weeks in culture.

[2] = system: Eucalyptus nodal sections; experiment: Acetosyringone in the co-cultivation medium, GUS staining of explants (Example 8)
Protocol: The inclusion of a phenolic compound, acetosyringone, in the co-cultivation medium was tested. Eucalyptus nodal sections were infected with Agrobacterium containing the double 35S-GUS construct, as described in Example 5, and then allowed to co-cultivate on MS+0.4% glucose medium containing acetosyringone, as described in Example 5. Following co-cultivation, explants were placed onto bud induction/selection medium for subsequent growth. Explants were stained for GUS activity as in Example 5 at 4-5 weeks post-infection.

[3] = system: stem segments from in vitro micropropagated shoot cultures of E. grandis x nitens clone 910.59; experiment: Adventitious bud induction from stem segments of different age at different BA concentrations (Example 1); conditions: NAA 0.01 mg/l, after 5 weeks in culture
Description: as §1
This experiment was designed to determine the best age of stem segments for adventitious bud induction. The basal medium used was full-strength Murashige and Skoog (MS) medium (Sigma M5519) and sucrose 30 g/l. The age of stem segments (apical, 1st, 2nd, 3rd and 4th nodes) were tested in combination with the concentrations of Benzylaminopurine (BA-1, 2 and 3 mg/l). All media contained Naphthalene acetic acid (NAA) at 0.01 mg/l.
In vitro shoots of 3-4 cm were cut into single node segments. The leaves were removed prior to culture. Approximately twenty explants were cultured for each treatment. Cultures were transferred to fresh media every 3 weeks. Adventitious bud development assessments were done after 5 weeks in culture. The percentages of explants forming adventitious shoots for each treatment are listed below.

With `NC[C@H]1O[C@H](O[C@H]2[C@H](O)[C@@H](O[C@H]3O[C@H](CO)[C@@H](O)[C@H](N)[C@H]3O)[C@H](N)C[C@@H]2N)[C@H](O)[C@@H](O)[C@@H]1O` [Kanamycin, kanamycin] as the compound, how does the inhibition at 5 µg/mL ([1]; 840 h, kanamycin 5 mg/l, read-out: % Bud Inhibition Relative To Control) read?
The inhibition at 5 µg/mL was 20%.

What about the inhibition at 10 µg/mL ([1]; 840 h, kanamycin 10 mg/l, read-out: % Bud Inhibition Relative To Control) of the same compound?
Its inhibition at 10 µg/mL is 41%.

What about the inhibition at 25 µg/mL ([1]; 840 h, kanamycin 25 mg/l, read-out: % Bud Inhibition Relative To Control) of the same compound?
Its inhibition at 25 µg/mL is 59%.

What about the inhibition at 50 µg/mL ([1]; 840 h, kanamycin 50 mg/l, read-out: % Bud Inhibition Relative To Control) of the same compound?
The inhibition at 50 µg/mL was 81%.

What about the inhibition at 100 µg/mL ([1]; 840 h, kanamycin 100 mg/l, read-out: % Bud Inhibition Relative To Control) of the same compound?
Its inhibition at 100 µg/mL is 96%.

What about the “% of Stem Segments Forming Adventitious Buds” value ([1]; kanamycin 5 mg/l) of the same compound?
The value was 64% (18/28).

And the “% of Stem Segments Forming Adventitious Buds” value ([1]; kanamycin 10 mg/l)?
The value was 47% (14/30).

And the “% of Stem Segments Forming Adventitious Buds” value ([1]; kanamycin 25 mg/l)?
Its value is 33% (10/30).

And the “% of Stem Segments Forming Adventitious Buds” value ([1]; kanamycin 50 mg/l)?
Its value is 15% (14/31).

And the “% of Stem Segments Forming Adventitious Buds” value ([1]; kanamycin 100 mg/l)?
Its value is 3% (1/30).

How did the “% of Total GUS-Positive Explants in Buds” value ([2]; 5 μM acetosyringone in MS+0.4% glucose co-cultivation medium, GUS staining 4-5 weeks post-infection) turn out when `COc1cc(C(C)=O)cc(OC)c1O` [Acetosyringone, acetosyringone] was run?
Its value is 8%.

And the “effect on transformation efficiency” value ([2]; 5 μM acetosyringone in the co-cultivation medium)?
Its value is “enhances transformation efficiency”.

With `c1ccc(CNc2ncnc3[nH]cnc23)cc1` [BA, Benzylaminopurine] as the compound, how does the “percentages of explants forming adventitious shoots” value (from here on “percentages”) ([3]; Apical Shoot Tips, BA 1 mg/l) read?
Its value is 25% (5/20).

And the “percentages” value ([3]; Apical Shoot Tips, BA 2 mg/l)?
Its value is 5% (1/20).

And the “percentages” value ([3]; Apical Shoot Tips, BA 3 mg/l)?
The value was 33% (7/20).

And the “percentages” value ([3]; First Node, BA 1 mg/l)?
The value was 57% (12/21).

What about the “percentages” value ([3]; First Node, BA 2 mg/l) of the same compound?
The value was 35% (7/20).

And the “percentages” value ([3]; First Node, BA 3 mg/l)?
Its value is 20% (4/20).

What about the “percentages” value ([3]; Fourth Node, BA 1 mg/l) of the same compound?
The value was 45% (9/20).

What about the “percentages” value ([3]; Fourth Node, BA 2 mg/l) of the same compound?
Its value is 38% (8/21).

What about the “percentages” value ([3]; Fourth Node, BA 3 mg/l) of the same compound?
The value was 10% (2/20).

What about the “percentages” value ([3]; Second Node, BA 1 mg/l) of the same compound?
The value was 76% (16/21).

What about the “percentages” value ([3]; Second Node, BA 2 mg/l) of the same compound?
Its value is 12% (6/20).

And the “percentages” value ([3]; Second Node, BA 3 mg/l)?
The value was 20% (4/20).

And the “percentages” value ([3]; Third Node, BA 1 mg/l)?
The value was 75% (15/20).

What about the “percentages” value ([3]; Third Node, BA 2 mg/l) of the same compound?
The value was 15% (3/20).

What about the “percentages” value ([3]; Third Node, BA 3 mg/l) of the same compound?
Its value is 15% (3/20).
